# Test results: paper PMC3916150 (Journal of medicinal chemistry, 2013)
# Like-named read-outs stand apart in the source and are kept apart here.
# What was measured:
# VDR-RXR = details: for inhibition of VDR activity compared with compound 1: both assays (10^-6 M and 10^-7 M), ER6 VDRE
# [1] = tested on: HuT-78 (human T-cell lymphoma) cells; experiment: Caspase-Glo 3/7 apoptosis assay in CTCL cells; type: cell-based; details: 100 nM
# human RARα = target: T1, human RARα (Homo sapiens, UniProt P10276); experiment: RAR/RARE-luciferase reporter assay in HCT-116 cells; details: RARE-luciferase, versus all-trans retinoic acid
# T1 sequence (P10276 1-462): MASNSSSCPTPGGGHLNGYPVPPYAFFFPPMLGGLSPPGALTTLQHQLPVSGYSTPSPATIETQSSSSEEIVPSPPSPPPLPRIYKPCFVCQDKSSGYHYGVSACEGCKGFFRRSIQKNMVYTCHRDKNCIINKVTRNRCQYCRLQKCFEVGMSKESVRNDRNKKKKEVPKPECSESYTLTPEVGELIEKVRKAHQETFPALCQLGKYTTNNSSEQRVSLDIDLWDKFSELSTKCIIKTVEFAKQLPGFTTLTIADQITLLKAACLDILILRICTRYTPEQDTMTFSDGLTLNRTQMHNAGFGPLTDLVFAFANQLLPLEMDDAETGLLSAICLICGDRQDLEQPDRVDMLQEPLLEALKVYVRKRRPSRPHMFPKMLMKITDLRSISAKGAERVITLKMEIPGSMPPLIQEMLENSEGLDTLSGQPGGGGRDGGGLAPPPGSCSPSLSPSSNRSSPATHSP
# human RXRα = target: T2, human RXRα (Homo sapiens, UniProt P19793); experiment: RXRE-luciferase reporter transcription assay in HCT-116 cells; type: cell-based; details: 25 nM and 100 nM (both assays), HCT-116, Figure 5A and B
# T2 sequence (P19793 1-462): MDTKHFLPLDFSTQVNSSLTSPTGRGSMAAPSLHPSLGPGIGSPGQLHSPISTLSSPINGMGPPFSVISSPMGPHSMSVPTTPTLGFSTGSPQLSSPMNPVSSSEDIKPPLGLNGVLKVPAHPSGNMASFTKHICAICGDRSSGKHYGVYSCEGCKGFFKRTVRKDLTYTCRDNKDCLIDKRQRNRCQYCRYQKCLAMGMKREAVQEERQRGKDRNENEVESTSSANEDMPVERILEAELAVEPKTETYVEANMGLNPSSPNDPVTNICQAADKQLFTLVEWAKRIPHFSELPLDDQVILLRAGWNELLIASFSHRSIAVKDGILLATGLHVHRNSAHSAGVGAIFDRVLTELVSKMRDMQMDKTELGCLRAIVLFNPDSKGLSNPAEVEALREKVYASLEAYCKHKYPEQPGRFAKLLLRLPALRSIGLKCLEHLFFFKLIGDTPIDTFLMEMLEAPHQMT
# human RXR = target: T3, human RXR (Homo sapiens, UniProt P19793); experiment: RXR mammalian two-hybrid; details: for RXR binding and homodimerization (luciferase output) compared to compound 1: 24 h; for RXR-mediated transcriptional activity: data in Figures 4 and 5 (M2H and RXRE assays)
# T3 sequence (P19793 1-462) 1: T2 sequence (P19793 1-462)
# T3 sequence (P19793 1-462) 2: T2 sequence (P19793 1-462)
# [2] = 100 nM analog + 1 nM 1,25D, Fig. 7A
# [3] = 1,000 nM analog + 1 nM 1,25D, Fig. 7B
# [4] = 100 nM analog + 1 nM 1,25D, Fig. 7C
# [5] = 100 nM analog + 1 nM 1,25D, Fig. 7E
# [6] = 1,000 nM analog + 1 nM 1,25D, Fig. 7F
Compound,"ER6 VDRE-mediated activity versus 1,25D alone (VDR-RXR; [2])","ER6 VDRE-mediated activity versus 1,25D alone (VDR-RXR; [3])",apoptosis compared to ethanol vehicle control ([1]; 24 hours),apoptosis compared to ethanol vehicle control ([1]; 48 hours),inhibition of VDR activity compared with compound 1 (VDR-RXR),RAR agonist activity compared to bexarotene (human RARα),RXRE-mediated transcriptional activity compared to compound 1 (human RXRα),"RXR binding and homodimerization (luciferase output) compared to compound 1 (human RXR; 25 nM, HCT-116, Figure 4A)","RXR binding and homodimerization (luciferase output) compared to compound 1 (human RXR; 100 nM, HCT-116, Figure 4B)",RXR-mediated transcriptional activity (human RXR),"DR3 VDRE-mediated activity versus 1,25D alone (VDR-RXR; [4])","CYP24 natural promoter 1,25D-VDR transactivation versus 1,25D alone (VDR-RXR; [5])","CYP24 natural promoter 1,25D-VDR transactivation versus 1,25D alone (VDR-RXR; [6])","DR3 VDRE-mediated activity versus 1,25D alone (VDR-RXR; 1,000 nM analog + 1 nM 1,25D, Fig. 7D)"
"Cc1cc2c(cc1C1(c3ccc(C(=O)O)cn3)CC1)C(C)(C)CCC2(C)C [Compound 9, 6-[1-(3,5,5,8,8-Pentamethyl-5,6,7,8-tetrahydronaphthalen-2-yl)cyclopropyl]nicotinic Acid, reference compound]",significantly lower,significantly lower,greater than the ethanol vehicle control,greater than the ethanol vehicle control,,,,,,,,,,
"C=C(c1ccc(C(=O)O)cc1)c1cc2c(cc1C)C(C)(C)C=CC2(C)C [Compound 10, 4-[1-(3,5,5,8,8-Pentamethyl-2–5,8-dihydronaphthyl)vinyl]benzoic Acid, reference compound]",,,greater than the ethanol vehicle control,,inhibited VDR activity less,greater RAR agonist activity,transcriptional activity consistently above the compound 1 level,,,,,,,
"Cc1cc2c(cc1-c1cc(/C=C/C(=O)O)ccc1O)C(C)(C)CCC2(C)C [Compound 11, (E)-3-(3-(1,2,3,4-tetrahydro-1,1,4,4,6-pentamethylnaphthalen-7-yl)-4-hydroxyphenyl)acrylic acid, reference compound]",significantly lower,significantly lower,,,,slightly lower RAR-directed activity,,greater activity than compound 1,high activity compared with compound 1,consistently more active,,,,
"Cc1cc2c(cc1-c1cccc(/C=C/C(=O)O)c1)C(C)(C)CCC2(C)C [Compound 12, (E)-3-(3-(1,2,3,4-tetrahydro-1,1,4,4,6-pentamethylnaphthalen-7-yl)phenyl)acrylic acid, reference compound]",,significantly lower,greater than the ethanol vehicle control,,,slightly lower RAR-directed activity,,,,consistently lower RXR-mediated transcriptional activity,significantly lower,significant inhibiton,significant inhibiton,
Cc1cc2c(cc1C1(c3ncc(C(=O)O)cn3)CC1)C(C)(C)CCC2(C)C [Compound 14],,significantly lower,greater than the ethanol vehicle control,greater than the ethanol vehicle control,inhibited VDR activity less,greater RAR agonist activity,,,,,,,,
"Cc1ccc(/C=C/C(=O)O)cc1-c1cc2c(cc1C)C(C)(C)CCC2(C)C [Compound 15, (E)-3-(3-(1,2,3,4-tetrahydro-1,1,4,4,6-pentamethylnaphthalen-7-yl)-4-methylphenyl)acrylic acid]",significantly lower,significantly lower,,,,greater RAR agonist activity,,greater activity than compound 1,high activity compared with compound 1,consistently more active,,,,significantly higher
"Cc1cc2c(cc1-c1cc(/C=C/C(=O)O)ccc1C(F)(F)F)C(C)(C)CCC2(C)C [Compound 16, (E)-3-(4-(trifluoromethyl)-3-(1,2,3,4-tetrahydro-1,1,4,4,6-pentamethylnaphthalen-7-yl)phenyl)acrylic acid]",,significantly lower,greater than the ethanol vehicle control,,,slightly lower RAR-directed activity,,,,consistently lower RXR-mediated transcriptional activity,,,,
"Cc1ccc(/C=C/C(=O)O)cc1-c1cc2c(cc1C)C(C)(C)C=CC2(C)C [Compound 17, (2E)-3-(3-(1,4-dihydro-1,1,4,4,6-pentamethylnaphthalen-7-yl)-4-methylphenyl)acrylic acid]",,significantly lower,greater than the ethanol vehicle control,greater than the ethanol vehicle control,inhibited VDR activity less,greater RAR agonist activity,,,,consistently lower RXR-mediated transcriptional activity,significantly lower,,,
"Cc1cc2c(cc1-c1cc(/C=C/C(=O)O)ccc1O)C(C)(C)C=CC2(C)C [Compound 18, (2E)-3-(3-(1,4-dihydro-1,1,4,4,6-pentamethylnaphthalen-7-yl)-4-hydroxyphenyl)acrylic acid]",,significantly lower,greater than the ethanol vehicle control,greater than the ethanol vehicle control,,approximately equal to bexarotene,,approaching statistical significance,,consistently more active,,significant inhibiton,significant inhibiton,
"C=C(c1ccc(C(=O)O)c(F)c1)c1cc2c(cc1C)C(C)(C)C=CC2(C)C [Compound 19, 2-Fluoro-4-(1-(1,4-dihydro-1,1,4,4,6-pentamethylnaphthalen-7-yl)vinyl)benzoic acid]",,significantly lower,greater than the ethanol vehicle control,greater than the ethanol vehicle control,,greater RAR agonist activity,,,,consistently lower RXR-mediated transcriptional activity,,significant inhibiton,,
"Methyl 2-(1-(1,2,3,4-tetrahydro-1,1,4,4,6-pentamethylnaphthalen-7-yl)vinyl)pyridine-5-carboxylate [Compound 13]",,significantly lower,greater than the ethanol vehicle control,greater than the ethanol vehicle control,inhibited VDR activity less,greater RAR agonist activity,,,,,,,,
